Experimental data taken from patent publication US20250346583A1, “NEW DERIVATIVES FOR TREATING TRPM3 MEDIATED DISORDERS” (Katholieke Universiteit Leuven, priority 2022, published 2025).

The molecules below were run against T1, mouse TRPM3α2 (mTRPM3) ion channel (Mus musculus, UniProt J9SQF3) (assay: TRPM3 ion channel driven Ca2+ uptake, Fluo-4 AM assay in overexpressing flip-in HEK293 cells). Settings: inhibition of Ca2+ influx stimulated with Pregnenolone sulfate (PS) 50 μM.
T1 construct: expressed in transfected cells; host or cells: flip-in HEK293
Format: cell-based
Protocol: Monitoring the TRPM3 Ion Channel Driven Ca^2+ Uptake.
In order to monitor the inhibition of the mouse TRPM3α2 (mTRPM3) ion channel by the compounds of the invention, a cellular system making use of an mTRPM3alpha2 or hTRPM3 overexpressing cell line (flip-in HEK293) was used. The TRPM3 channel was stimulated/opened with Pregnenolone sulfate (PS) (50 μM) which results in Ca^2+ influx.
For mTRPM3, the intracellular Ca^2+ was measured with a Calcium responsive dye, Fluor-4 AM ester (Invitrogen). Cells were cultured until a confluence of 80-90%, washed with Versene (Invitrogen) and detached from the surface by a short incubation with 0.05% Trypsin (Invitrogen). The trypsination process was stopped by the addition of complete cell culture medium (DMEM, glutamax,10% FCS, NEAA, Pen-Strep). Cells were collected and resuspended in Krebs buffer without Calcium at RT.
Prior the cell seeding (+2000 cells/well into a black, 384 well plate (Greiner)) the diluted compound was added in the assay plate, together with the PS dissolved in Krebs buffer containing Calcium. […] Directly after cell addition the plates were read on an Envision fluorescence reader (Perkin Elmer) by an Excitation of 485 nm and emission at 535 nm.
Channel inhibition was calculated compared to a non-PS stimulated control versus a condition stimulated with PS (50 μM) with vehicle. The ability of the compounds of the invention to inhibit this activity was determined as: Percentage inhibition=[1-((RFU determined for sample with test compound present - RFU determined for sample with positive control inhibitor) divided by (RFU determined in the presence of vehicle - RFU determined for sample with positive control inhibitor))]*100.
The activities of the Example compounds tested are depicted in the table below. The activity ranges A, B and C refer to IC50 values in the Fluo-4 AM assay as follows: “A”: IC50<1 μM; “B”: 1 μM<IC50<20 μM and “C”: IC50>20 μM

T1 sequence (J9SQF3 1-1709 isoform J9SQF3-12): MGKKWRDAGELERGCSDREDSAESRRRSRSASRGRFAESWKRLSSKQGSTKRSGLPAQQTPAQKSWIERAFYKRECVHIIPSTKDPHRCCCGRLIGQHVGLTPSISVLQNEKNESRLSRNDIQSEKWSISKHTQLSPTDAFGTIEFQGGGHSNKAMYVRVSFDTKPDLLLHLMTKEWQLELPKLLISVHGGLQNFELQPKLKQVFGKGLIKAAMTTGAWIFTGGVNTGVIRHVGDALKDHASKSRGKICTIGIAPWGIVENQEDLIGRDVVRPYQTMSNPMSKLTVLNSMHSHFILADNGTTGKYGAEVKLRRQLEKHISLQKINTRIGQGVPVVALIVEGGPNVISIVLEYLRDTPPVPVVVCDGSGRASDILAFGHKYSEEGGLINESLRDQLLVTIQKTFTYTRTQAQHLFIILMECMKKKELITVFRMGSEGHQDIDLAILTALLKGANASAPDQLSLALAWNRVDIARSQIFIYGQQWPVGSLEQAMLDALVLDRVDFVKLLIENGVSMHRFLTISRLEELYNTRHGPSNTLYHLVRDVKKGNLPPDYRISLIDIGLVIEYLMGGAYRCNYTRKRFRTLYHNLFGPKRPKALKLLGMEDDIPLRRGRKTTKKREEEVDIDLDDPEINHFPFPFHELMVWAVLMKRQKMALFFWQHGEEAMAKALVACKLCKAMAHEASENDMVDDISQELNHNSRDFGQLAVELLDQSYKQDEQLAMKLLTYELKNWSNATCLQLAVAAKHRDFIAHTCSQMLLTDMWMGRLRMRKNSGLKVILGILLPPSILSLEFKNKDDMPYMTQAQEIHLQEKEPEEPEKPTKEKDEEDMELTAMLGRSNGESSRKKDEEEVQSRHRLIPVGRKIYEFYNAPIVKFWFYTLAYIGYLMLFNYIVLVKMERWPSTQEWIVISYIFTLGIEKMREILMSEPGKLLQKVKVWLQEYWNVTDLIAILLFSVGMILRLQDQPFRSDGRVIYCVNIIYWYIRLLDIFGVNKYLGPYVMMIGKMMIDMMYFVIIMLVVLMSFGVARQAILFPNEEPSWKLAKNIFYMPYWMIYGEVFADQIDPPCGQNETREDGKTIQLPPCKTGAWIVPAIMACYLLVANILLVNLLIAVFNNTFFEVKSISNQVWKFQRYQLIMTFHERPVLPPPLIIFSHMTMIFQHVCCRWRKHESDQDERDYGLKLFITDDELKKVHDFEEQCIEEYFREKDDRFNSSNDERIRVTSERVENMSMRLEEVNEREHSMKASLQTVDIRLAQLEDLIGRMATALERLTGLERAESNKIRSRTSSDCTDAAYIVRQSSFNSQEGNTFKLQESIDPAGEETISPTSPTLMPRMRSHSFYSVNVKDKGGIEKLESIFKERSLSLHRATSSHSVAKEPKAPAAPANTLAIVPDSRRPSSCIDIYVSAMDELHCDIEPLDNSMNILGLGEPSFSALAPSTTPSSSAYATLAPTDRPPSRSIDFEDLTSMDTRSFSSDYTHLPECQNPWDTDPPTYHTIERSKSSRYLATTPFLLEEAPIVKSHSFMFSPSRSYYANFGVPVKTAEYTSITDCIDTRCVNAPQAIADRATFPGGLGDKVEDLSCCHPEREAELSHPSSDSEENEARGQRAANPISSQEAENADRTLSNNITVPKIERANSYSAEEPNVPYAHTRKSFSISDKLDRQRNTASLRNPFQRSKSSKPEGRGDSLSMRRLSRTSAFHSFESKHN

Row | IC50 | SMILES
1 | > 20000 nM | Cc1oc2ccc(OCc3ccccc3)cc2c1-c1cncc(CC(F)(F)F)n1 [Cpd 029, 2-[5-(benzyloxy)-2-methyl-1-benzofuran-3-yl]-6-(2,2,2-trifluoroethyl)pyrazine]
2 | 1000 to 20000 nM | Cc1oc2ccc(OCc3c(F)cccc3Cl)cc2c1-c1nn[nH]n1 [Cpd 023, 5-{5-[(2-chloro-6-fluorophenyl)methoxy]-2-methyl-1-benzofuran-3-yl}-2H-1,2,3,4-tetrazole]
3 | 1000 to 20000 nM | Cc1oc2ccc(OCc3ccccn3)cc2c1C1(N)CC1 [Cpd 024, 1-{2-methyl-5-[(pyridin-2-yl)methoxy]-1-benzofuran-3-yl}cyclopropan-i-amine]
4 | > 20000 nM | Cc1ncsc1COc1ccc2oc(C)c(C3(N)CC3)c2c1 [Cpd 027, 1-{2-methyl-5-[(4-methyl-1,3-thiazol-5-yl)methoxy]-1-benzofuran-3-yl}cyclopropan-i-amine]
5 | > 20000 nM | Cc1ncc(COc2ccc3oc(C)c(C4(N)CC4)c3c2)s1 [Cpd 026, 1-{2-methyl-5-[(2-methyl-1,3-thiazol-5-yl)methoxy]-1-benzofuran-3-yl}cyclopropan-i-amine]
6 | > 20000 nM | Cc1oc2ccc(OCc3ccccc3)cc2c1-c1nccc(CO)n1 [Cpd 032, {2-[5-(benzyloxy)-2-methyl-1-benzofuran-3-yl]pyrimidin-4-yl}methanol]
7 | > 20000 nM | Cc1oc2ccc(OCc3ccccc3)cc2c1-c1nccc(CC(F)(F)F)n1 [Cpd 030, 2-[5-(benzyloxy)-2-methyl-1-benzofuran-3-yl]-4-(2,2,2-trifluoroethyl)pyrimidine]
8 | 1000 to 20000 nM | Cc1ncsc1COc1ccc2oc(C)c(C3(C(N)=O)CC3)c2c1 [Cpd 022, 1-{2-methyl-5-[(4-methyl-1,3-thiazol-5-yl)methoxy]-1-benzofuran-3-yl}cyclopropane-1-carboxamide]
9 | > 20000 nM | Cc1noc(-c2c(C)oc3ccc(OCc4c(F)cccc4Cl)cc23)n1 [Cpd 028, 5-{5-[(2-chloro-6-fluorophenyl)methoxy]-2-methyl-1-benzofuran-3-yl}-3-methyl-1,2,4-oxadiazole]
10 | > 20000 nM | Cc1oc2ccc(OCc3ccccc3)cc2c1-c1cncc(CO)n1 [Cpd 031, {6-[5-(benzyloxy)-2-methyl-1-benzofuran-3-yl]pyrazin-2-yl}methanol]
11 | 1000 to 20000 nM | Cc1oc2ccc(OCc3ccccc3)cc2c1C1(CO)CC1 [Cpd 021, {1-[5-(benzyloxy)-2-methyl-1-benzofuran-3-yl]cyclopropyl}methanol]

Second part, the molecule before the results:

Row | SMILES | IC50
12 | Cc1ncsc1COc1ccc2oc(C)c(C3(C(=O)NCCO)CC3)c2c1 [Cpd 020, N-(2-hydroxyethyl)-1-{2-methyl-5-[(4-methyl-1,3-thiazol-5-yl)methoxy]-1-benzofuran-3-yl}cyclopropane-1-carboxamide] | 1000 to 20000 nM
13 | Cc1oc2ccc(OCc3cccnc3C(F)(F)F)cc2c1C1(CO)CC1 [Cpd 001, [1-(2-methyl-5-{[2-(trifluoromethyl)pyridin-3-yl]methoxy}-1-benzofuran-3-yl)cyclopropyl]methanol] | < 1000 nM
14 | COCCC(=O)NC1(c2c(C)oc3ccc(OCc4cccnc4C(F)(F)F)cc23)CC1 [Cpd 008, 3-methoxy-N-[1-(2-methyl-5-{[2-(trifluoromethyl)pyridin-3-yl]methoxy}-1-benzofuran-3-yl)cyclopropyl]propanamide] | < 1000 nM
15 | Cc1oc2ccc(OCc3cccnc3C(F)(F)F)cc2c1C1(NS(=O)(=O)C2CC2)CC1 [Cpd 005, N-[1-(2-methyl-5-{[2-(trifluoromethyl)pyridin-3-yl]methoxy}-1-benzofuran-3-yl)cyclopropyl]cyclopropanesulfonamide] | < 1000 nM
16 | Cc1oc2ccc(OCc3cccnc3C(F)(F)F)cc2c1C1(NS(C)(=O)=O)CC1 [Cpd 006, N-[1-(2-methyl-5-{[2-(trifluoromethyl)pyridin-3-yl]methoxy}-1-benzofuran-3-yl)cyclopropyl]methanesulfonamide] | < 1000 nM
17 | Cc1ncsc1COc1ccc2oc(C)c(C3(C#N)CC3)c2c1 [Cpd 011, 1-{2-methyl-5-[(4-methyl-1,3-thiazol-5-yl)methoxy]-1-benzofuran-3-yl}cyclopropane-i-carbonitrile] | < 1000 nM
18 | COCC(=O)NC1(c2c(C)oc3ccc(OCc4cccnc4C(F)(F)F)cc23)CC1 [Cpd 010, 2-methoxy-N-[1-(2-methyl-5-{[2-(trifluoromethyl)pyridin-3-yl]methoxy}-1-benzofuran-3-yl)cyclopropyl]acetamide] | < 1000 nM
19 | Cc1ncsc1COc1ccc2oc(C)c(-c3ncc(CO)[nH]3)c2c1 [Cpd 007, (2-{2-methyl-5-[(4-methyl-1,3-thiazol-5-yl)methoxy]-1-benzofuran-3-yl}-1H-imidazol-4-yl)methanol] | < 1000 nM
20 | Cc1oc2ccc(OCc3cccnc3C(F)(F)F)cc2c1C1(NC(C)C(N)=O)CC1 (centres unmarked) [Cpd 015, 2-{[1-(2-methyl-5-{[2-(trifluoromethyl)pyridin-3-yl]methoxy}-1-benzofuran-3-yl)cyclopropyl]amino}propanamide] | 1000 to 20000 nM
21 | Cc1oc2ccc(OCc3ccccc3)cc2c1C1(C#N)CC1 [Cpd 019, 1-[5-(benzyloxy)-2-methyl-1-benzofuran-3-yl]cyclopropane-1-carbonitrile] | 1000 to 20000 nM
22 | Cc1oc2ccc(OCc3cccnc3C(F)(F)F)cc2c1C1(NC(=O)C(C)(C)O)CC1 [Cpd 009, 2-hydroxy-2-methyl-N-[1-(2-methyl-5-{[2-(trifluoromethyl)pyridin-3-yl]methoxy}-1-benzofuran-3-yl)cyclopropyl]propanamide] | < 1000 nM
23 | Cc1ncsc1COc1ccc2oc(C)c(C3(NC(=O)CO)CC3)c2c1 [Cpd 017, 2-hydroxy-N-(1-{2-methyl-5-[(4-methyl-1,3-thiazol-5-yl)methoxy]-1-benzofuran-3-yl}cyclopropyl)acetamide] | 1000 to 20000 nM
24 | Cc1oc2ccc(OCC3CC3)cc2c1C1(N)CC1 [Cpd 025, 1-[5-(cyclopropylmethoxy)-2-methyl-1-benzofuran-3-yl]cyclopropan-i-amine] | > 20000 nM
25 | Cc1oc2ccc(OCc3cccnc3C(F)(F)F)cc2c1C1(CN)CC1 [Cpd 016, 1-[1-(2-methyl-5-{[2-(trifluoromethyl)pyridin-3-yl]methoxy}-1-benzofuran-3-yl)cyclopropyl]methanamine] | 1000 to 20000 nM
26 | Cc1oc2ccc(OCc3cccnc3C(F)(F)F)cc2c1C1(N)CC1 [Cpd 014, 1-(2-methyl-5-{[2-(trifluoromethyl)pyridin-3-yl]methoxy}-1-benzofuran-3-yl)cyclopropan-1-amine] | 1000 to 20000 nM
27 | Cc1ncsc1COc1ccc2oc(C)c(C3(CO)CC3)c2c1 [Cpd 004, (1-{2-methyl-5-[(4-methyl-1,3-thiazol-5-yl)methoxy]-1-benzofuran-3-yl}cyclopropyl)methanol] | < 1000 nM
28 | Cc1oc2ccc(OCc3cccnc3O)cc2c1C1=NC(CO)(CO)CO1 [Cpd 018, 3-[({3-[4,4-bis(hydroxymethyl)-4,5-dihydro-1,3-oxazol-2-yl]-2-methyl-1-benzofuran-5-yl}oxy)methyl]pyridin-2-ol] | 1000 to 20000 nM
29 | Cc1ncsc1COc1ccc2oc(C)c(-c3ncc(CO)o3)c2c1 [Cpd 002, (2-{2-methyl-5-[(4-methyl-1,3-thiazol-5-yl)methoxy]-1-benzofuran-3-yl}-1,3-oxazol-5-yl)methanol] | < 1000 nM
30 | Cc1oc2ccc(OCc3cccnc3C(F)(F)F)cc2c1C1(NCC(N)=O)CC1 [Cpd 012, 2-{[1-(2-methyl-5-{[2-(trifluoromethyl)pyridin-3-yl]methoxy}-1-benzofuran-3-yl)cyclopropyl]amino}acetamide] | < 1000 nM
31 | Cc1oc2ccc(OCc3cccnc3C(F)(F)F)cc2c1C1(NS(=O)(=O)CC2CC2)CC1 [Cpd 013, 1-cyclopropyl-N-[1-(2-methyl-5-{[2-(trifluoromethyl)pyridin-3-yl]methoxy}-1-benzofuran-3-yl)cyclopropyl]methanesulfonamide] | < 1000 nM
32 | Cc1oc2ccc(OCc3cccnc3C(F)(F)F)cc2c1C1(NC(=O)CO)CC1 [Cpd 003, 2-hydroxy-N-[1-(2-methyl-5-{[2-(trifluoromethyl)pyridin-3-yl]methoxy}-1-benzofuran-3-yl)cyclopropyl]acetamide] | < 1000 nM
